According to patent US20190117675A1, “Compositions And Methods To Treat And/Or Prevent Vision Disorders Of The Lens Of The Eye” (Helix Holding Company, priority 2014, published 2019):
“Also recorded” adds a separate entry of the source.

Tests used:
[1] = test system: aA-crystallin-Y118D and aB-crystallin-R120G; assay: Dissolving of accumulated crystal protein in cells carrying two crystallin mutant plasmids; format: cell-based; conditions: 10 uM, compared with 1% DMSO solution
Protocol: FIG. 13. Two mutant crystal proteins were introduced into cells. The accumulated crystal protein were treated by adding different agents.
Cyclopentanoperhy drophenanthrene compounds of the present invention refers to a compound containing cyclopentanoperhy drophenanthrene skeleton structure, including its derivatives. After the two crystal protein mutant plasmid aA-crystallin-Y118D and aB-crystallin-R120G were introduced into cells, we investigated the lanosterol and its derivatives as well as cholesterol (Cholesterol) for their effects on intracellular accumulation of crystal protein. Not all cyclopentanoperhy drophenanthrene compound have the same effect.

dog eyes with cataracts = assay: Treatment of cataract lenses in dogs; format: in vivo; conditions: dog eyes treated with lanosterol for 6 weeks (intravitreal nanoparticles plus eye drops three times daily)
Protocol: Grading System of Dog Cataract • Grade 0: absence of opacification (no cataract); • Grade 1: a slight degree of opacification (incipient stage); • Grade 2: presence of diffuse opacification involving almost the entire lens (immature stage); • Grade 3: presence of extensive thick opacification involving the entire lens (mature stage)
To assess the effect of lanosterol treatment on cataract in live animals, left eye of dogs with bilateral cataract were treated for topical eye drops. The right eye of each animal was administered one drop of vehicle, 3 times a day so that the drop coated the eye. One drop of lanosterol was administered to the left eye of each animal in the same manner. Both eyes of some control animals were treated for vehicle. […] Each lens was recorded by photography. Degree of cataract was assessed using AREDS cataract grading system.
This study was approved by TACUC of Zhongshan Ophthalmic Center and West China Hospital. […] Degree of cataract was assessed by a blinded examiner and scored based on canine cataract stage, shown below. Improvements in lens clarity and transparency were quantified. […]
The mixture solution was then stirred for 2 h to allow the nanoparticles to form and the acetonitrile to evaporate. […] The loading yield of lanosterol was quantified by high performance liquid chromatography.

cataractous rabbit lens = assay: Treatment of isolated cataractous rabbit lenses; conditions: isolated rabbit lenses incubated with lanosterol for 6 days
Protocol: FIG. 9. […] Rabbit lenses (n=13) were dissected and incubated with lanosterol for 6 days and subsequently assessed for lens clarity and transparency. Pairs of photographs of each cataractous rabbit lens showing before and after treatment with scores underneath are shown.
Rabbits were euthanized by CO2 inhalation and lenses were immediately dissected and were treated with vehicle or lanosterol dissolved in vehicle to make 5 mM solutions. Lens tissues were incubated in these solutions for 6 days in the dark at room temperature. Cataract were examined under a microscope and then photographed. Degree of cataract was assessed using AREDS cataract grading system.

[2] = test system: various cataract-causing crystallin mutants; assay: Aggresome / intracellular aggregate formation of crystallin mutants in transfected cells (confocal microscopy); format: cell-based; conditions: 0-40 μM sterols in 2% DMSO, 2 h treatment then 12 h culture; lanosterol effect dose-dependent
Protocol: The effect of lanosterol or cholesterol on the aggresome formation of various crystallins was studied by transfecting the cells using plasmids containing various crystallin genes. The cells were cultivated for 24 h to enable efficient protein expression and aggresome formation. Then the cells were treated with 0-40 μM sterols in 2% DMSO. The cells treated with 2% DMSO were used as the control. After treatment for 2 h, the cells were moved to fresh DMEM medium containing 10% fetal bovine serum and further cultivated for 12 h. Then the cells were used for microscopy analysis.
The microscopy samples were prepared by washing the slips by phosphate buffered saline (PBS) three times. The cells were fixed with 4% paraformaldehyde for 40 min followed by three times washing with PBS. The cells were permeabilized with 0.1% Triton X-100 (Sigma) in PBS for 10 min and blocked with 5% normal goat serum in PBS for 1 h at 37° C. Immunostaining was carried out by adding mouse anti-Flag antibody (1:500) or anti-p62 antibody (1:200) in PBS buffer containing 5% normal goat serum and cultivated for 1 h at 37° C. Then the slips were washed three times with PBS, and further incubated with Alexa 649-conjugated goat anti-mouse IgG (1:250) for 1 h at ambient temperature. The nuclei were counterstained with Hoechst 33342. The mounted cells were analyzed using a Carl Zeiss LSM 710 confocal microscope.

CC(C)=CCC[C@@H](C)[C@H]1CC[C@@]2(C)C3=C(CC[C@]12C)[C@@]1(C)CC[C@H](O)C(C)(C)[C@@H]1CC3 [Lanosterol]
dissolving of accumulated crystal protein [1]: significantly dissolve accumulated crystals protein; also recorded: significant dissolving of the accumulated crystal protein
cataract severity and lens clarity (dog eyes with cataracts): reduced cataract severity and increased lens clarity
cataract severity and lens clarity (cataractous rabbit lens): reduced cataract severity and increased clarity
intracellular aggregation of various cataract-causing crystallin mutants [2]: significantly reduced intracellular aggregation
